Tested on: MC38 tumors
Test: MC38 tumor growth and survival, oral L-arginine with or without αPD-L1
Assay type: in vivo, C57BL/6 WT mice
Conditions: s.c. MC38; L-arginine 2 g/kg oral gavage daily; αPD-L1 200 μg i.p. every second day; compared to control group
Description: FIGS. 1A, 1B, and 1C: 5×10^5 MC38 colon adenocarcinoma cells were injected s.c. in C57BL/6 WT mice and tumors were allowed to grow for 11 days before treatments were initiated. Control mice (n=13) received daily an oral gavage of H2O (100 μl) and every second day 200 μl of PBS i.p. The L-arginine group received daily an oral gavage of L-arginine (2 g/kg body weight in 100 μl) (n=19). The PD-L1 group received 200 μg of αPD-L1 mAb i.p. every second day (n=16). The Combo group received L-arginine (oral) and αPD-L1 (i.p.) (n=17). FIG. 1A depicts in vivo MC38 tumor growth (number of mice are indicated in the graph). Values represent mean tumor volume +/− SEM. FIG. 1C: Survival curves of different groups of mice. P values were determined by log-rank comparisons between the curves. FIG. 1B provide tumor growth curves of individual mice. P values were determined by two way ANOVA. *P<0.05, **P<0.01, ***P<0.001, ****P<0.0001, throughout.
MC38 murine colon adenocarcinoma cells were cultured in RPMI 1640 plus 10% heat-inactivated FCS, 1 mM Na-Pyruvate and 50 μM β-mercaptoethanol. Female C57BL/6 mice between the ages of 5 to 10 weeks were implanted with the MC38 cells. […] The size of tumors was measured in a blinded fashion using calipers. […] Tumors were collected, digested and tumor-infiltrating lymphocytes (TILs) were analyzed by flow cytometry.

**Q.** With `N=C(N)NCCC[C@H](N)C(=O)O` [L-arginine] as the compound, how does the MC38 tumor growth read?
**A.** The MC38 tumor growth was “slightly reduced”.

From US20220226397A1, “SYNERGISTIC COMBINATIONS OF ARGININE-PRODUCING BACTERIA AND/OR AMMONIA-CONSUMING BACTERIA AND CHECKPOINT INHIBITORS AND METHODS OF USE THEREOF” (Synlogic Operating Company, Inc., priority 2019, published 2022)
